Read-outs that look alike come from different tables or passages of the source.
What was measured:
U-87 MG = assay: OncoPanel cell proliferation assay, U-87 MG; assay type: cell-based, human
Procedure: (§1) Cells were grown in RPMI 1640, 10% FBS, 2 mM L-alanyl-L-glutamine, 1 mM Na pyruvate, or a special medium. Cells were seeded into 384-well plates and incubated in a humidified atmosphere of 5% CO2 at 37° C. Compounds were added the day following cell seeding. At the same time, a time zero untreated cell plate was generated. After a 3-day incubation period, cells were fixed and stained to allow fluorescence imaging of nuclei. Compounds (1 mM stock solutions) were serially diluted in half-log steps from the highest test concentration ([…]), and assayed over 10 concentrations with a maximum assay concentration of 0.1% DMSO. Automated fluorescence microscopy was carried out using a Molecular Devices ImageXpress Micro XL high-content imager, and images were collected with a 4× objective. 16-bit TIFF images were acquired and analyzed with MetaXpress 5.1.0.41 software.
(§2) Cell proliferation was measured by the fluorescence intensity of an incorporated nuclear dye. The output is referred to as the relative cell count, where the measured nuclear intensity is transformed to percent of control (POC) using the following formula: […]
(§3) Cellular response parameters were calculated using nonlinear regression to a sigmoidal single-site dose response model:
(§4) Where y is a response measured at concentration x, A and B are the lower and upper limits of the response, C is the concentration at the response midpoint (EC50), and D is the Hill Slope (Ref. 1).
(§5) EC50 is the test compound concentration at the curve inflection point or half the effective response (parameter C of the fitted curve solution). GI50 is the concentration needed to reduce the observed growth by half (midway between the curve maximum and the time zero value). “Cell Count Activity Area” is an estimate of the integrated area above the curve (Barretina, et al. The Cancer Cell Line Encyclopedia enables predictive modelling of anticancer drug sensitivity. Nature 483: 603-607). […] In rare instances, values <0 or >10 may be observed. […] Curve-fitting, calculations, and report generation was performed using a custom data reduction engine and MathIQ based software (AIM).

OVCAR3 = assay: OncoPanel cell proliferation assay, OVCAR3; settings: for Relative cell count (%) Mean: OVCAR3
Procedure: (§6) Cells were seeded into 384-well plates and incubated in a humidified atmosphere of 5% CO2 at 37° C. Compounds were added the day following cell seeding. At the same time, a time zero untreated cell plate was generated. After a 3-day incubation period, cells were fixed and stained to allow fluorescence imaging of nuclei. Compounds (1 mM stock solutions) were serially diluted in half-log steps from the highest test concentration (1 micromol), and assayed over 10 concentrations with a maximum assay concentration of 0.1% DMSO. Automated fluorescence microscopy was carried out using a Molecular Devices ImageXpress Micro XL high-content imager, and images were collected with a 4× objective. 16-bit TIFF images were acquired and analyzed with MetaXpress 5.1.0.41 software.

CEM-C1 = assay: OncoPanel cell proliferation assay, CEM-C1; assay type: cell-based, human; settings: for Relative cell count (%) Mean: CEM-C1
Procedure: as §1, §2, §3, §4, §5

SW684 = assay: OncoPanel cell proliferation assay, SW684; assay type: cell-based, human; settings: for Relative cell count (%) Mean: SW684
Procedure: as §1, with “Cells” for “Cells were grown in RPMI 1640, 10% FBS, 2 mM L-alanyl-L-glutamine, 1 mM Na pyruvate, or a special medium. Cells”
as §2, §3, §4
GI50 is the concentration needed to reduce the observed growth by half (midway between the curve maximum and the time zero value). […] In rare instances, values <0 or >10 may be observed. […] Curve-fitting, calculations, and report generation was performed using a custom data reduction engine and MathIQ based software (AIM).

AsPC-1 = assay: OncoPanel cell proliferation assay, AsPC-1; settings: for Relative cell count (%) Mean: AsPC-1
Procedure: as §6

A101D = assay: OncoPanel cell proliferation assay, A101D; assay type: cell-based, human
Procedure: as §1, §2, §3, §4, §5

[1] = Homo sapiens, 72 h, 3-day incubation, read-out: Cell Count EC50
[2] = Homo sapiens, 72 h, 3-day incubation, read-out: Cell Count GI50
[3] = Homo sapiens, 72 h, 3-day incubation, read-out: Cell Count IC50

CO[C@H]1C[C@@H]2CC[C@@H](C)[C@@](O)(O2)C(=O)C(=O)N2CCCC[C@H]2C(=O)O[C@H]([C@H](C)C[C@@H]2C[C@@H]3C[C@H]2C[C@H]3O)CC(=O)[C@H](C)/C=C(\C)[C@@H](O)[C@@H](OC)C(=O)[C@H](C)C[C@H](C)/C=C/C=C/C=C/1C [Formula I, 37R-hydroxynorbornylrapamycin]
Relative cell count (%) Mean (U-87 MG; 1.00E+00 microM): 51.2% | Relative cell count (%) Mean (U-87 MG; 1.00E−01 microM): 54.5% | Relative cell count (%) Mean (U-87 MG; 1.00E−02 microM): 54.7% | Relative cell count (%) Mean (U-87 MG; 1.00E−03 microM): 64.8% | Relative cell count (%) Mean (U-87 MG; 1.01E−04 microM): 87.3% | Relative cell count (%) Mean (U-87 MG; 3.16E−01 microM): 51.6% | Relative cell count (%) Mean (U-87 MG; 3.17E−02 microM): 50.4% | Relative cell count (%) Mean (U-87 MG; 3.17E−03 microM): 58.9% | Relative cell count (%) Mean (U-87 MG; 3.18E−04 microM): 71.8% | Relative cell count (%) Mean (U-87 MG; 3.18E−05 microM): 93.7% | EC50 (U-87 MG; [1]): 0.206 nM | GI50 (U-87 MG; [2]): 0.509 nM | IC50 (U-87 MG; [3]): 48.8 nM | Cell Count Activity Area (U-87 MG; scale 0-10): 3.92 | EC50 (OVCAR3; Homo sapiens): 650 nM | EC50 (OVCAR3; Homo sapiens, OVCAR-3, 72 h, read-out: Cell Count EC50): 646 nM | GI50 (OVCAR3; Homo sapiens, OVCAR-3, 72 h, read-out: Cell Count GI50): 65.8 nM | IC50 (OVCAR3; Homo sapiens, OVCAR-3, 72 h, read-out: Cell Count IC50): > 1000 nM | Cell Count Activity Area (OVCAR3; OVCAR3, scale 0-10): 2.43 | Relative cell count (%) Mean (OVCAR3; 1.00E+00 microM): 61.8% | Relative cell count (%) Mean (OVCAR3; 1.00E−01 microM): 72.8% | Relative cell count (%) Mean (OVCAR3; 1.00E−02 microM): 85.0% | Relative cell count (%) Mean (OVCAR3; 1.00E−03 microM): 90.2% | Relative cell count (%) Mean (OVCAR3; 1.01E−04 microM): 93.3% | Relative cell count (%) Mean (OVCAR3; 3.16E−01 microM): 61.7% | Relative cell count (%) Mean (OVCAR3; 3.17E−02 microM): 79.9% | Relative cell count (%) Mean (OVCAR3; 3.17E−03 microM): 85.2% | Relative cell count (%) Mean (OVCAR3; 3.18E−04 microM): 89.7% | Relative cell count (%) Mean (OVCAR3; 3.18E−05 microM): 106.9% | Cell Count Activity Area (CEM-C1; CEM-C1, scale 0-10): 3.52 | Relative cell count (%) Mean (CEM-C1; 1.00E+00 microM): 47.1% | Relative cell count (%) Mean (CEM-C1; 1.00E−01 microM): 53.2% | Relative cell count (%) Mean (CEM-C1; 1.00E−02 microM): 58.4% | Relative cell count (%) Mean (CEM-C1; 1.00E−03 microM): 68.7% | Relative cell count (%) Mean (CEM-C1; 1.01E−04 microM): 90.0% | Relative cell count (%) Mean (CEM-C1; 3.16E−01 microM): 48.9% | Relative cell count (%) Mean (CEM-C1; 3.17E−02 microM): 53.1% | Relative cell count (%) Mean (CEM-C1; 3.17E−03 microM): 62.4% | Relative cell count (%) Mean (CEM-C1; 3.18E−04 microM): 72.7% | Relative cell count (%) Mean (CEM-C1; 3.18E−05 microM): 94.0% | EC50 (CEM-C1; Homo sapiens, 72 h, CEM-C1, 3-day incubation, read-out: Cell Count EC50): 0.5 nM | GI50 (CEM-C1; Homo sapiens, 72 h, CEM-C1, 3-day incubation, read-out: Cell Count GI50): 10.2 nM | IC50 (CEM-C1; Homo sapiens, 72 h, CEM-C1, 3-day incubation, read-out: Cell Count IC50): 391 nM | EC50 (SW684; Homo sapiens, 72 h, SW684, 3-day incubation, read-out: Cell Count EC50): 0.477 nM | GI50 (SW684; Homo sapiens, 72 h, SW684, 3-day incubation, read-out: Cell Count GI50): 0.286 nM | IC50 (SW684; Homo sapiens, 72 h, SW684, 3-day incubation, read-out: Cell Count IC50): 21.1 nM | Cell Count Activity Area (SW684; SW684, scale 0-10): 3.93 | Relative cell count (%) Mean (SW684; 1.00E+00 microM): 44.1% | Relative cell count (%) Mean (SW684; 1.00E−01 microM): 51.0% | Relative cell count (%) Mean (SW684; 1.00E−02 microM): 55.0% | Relative cell count (%) Mean (SW684; 1.00E−03 microM): 68.8% | Relative cell count (%) Mean (SW684; 1.01E−04 microM): 89.3% | Relative cell count (%) Mean (SW684; 3.16E−01 microM): 47.1% | Relative cell count (%) Mean (SW684; 3.17E−02 microM): 52.7% | Relative cell count (%) Mean (SW684; 3.17E−03 microM): 60.7% | Relative cell count (%) Mean (SW684; 3.18E−04 microM): 77.8% | Relative cell count (%) Mean (SW684; 3.18E−05 microM): 91.9% | Cell Count Activity Area (AsPC-1; AsPC-1, scale 0-10): 2.50 | Relative cell count (%) Mean (AsPC-1; 1.00E+00 microM): 64.8% | Relative cell count (%) Mean (AsPC-1; 1.00E−01 microM): 74.0% | Relative cell count (%) Mean (AsPC-1; 1.00E−02 microM): 68.9% | Relative cell count (%) Mean (AsPC-1; 1.00E−03 microM): 81.7% | Relative cell count (%) Mean (AsPC-1; 1.01E−04 microM): 89.6% | Relative cell count (%) Mean (AsPC-1; 3.16E−01 microM): 67.9% | Relative cell count (%) Mean (AsPC-1; 3.17E−02 microM): 74.7% | Relative cell count (%) Mean (AsPC-1; 3.17E−03 microM): 77.8% | Relative cell count (%) Mean (AsPC-1; 3.18E−04 microM): 94.5% | Relative cell count (%) Mean (AsPC-1; 3.18E−05 microM): 99.5% | EC50 (AsPC-1; Homo sapiens, ASPC1): 0.52 nM | EC50 (AsPC-1; Homo sapiens, ASPC1, 72 h, read-out: Cell Count EC50): 0.519 nM | GI50 (AsPC-1; Homo sapiens, ASPC1, 72 h, read-out: Cell Count GI50): 8.07 nM | IC50 (AsPC-1; Homo sapiens, ASPC1, 72 h, read-out: Cell Count IC50): > 1000 nM | Relative cell count (%) Mean (A101D; 1.00E+00 microM): 50.8% | Relative cell count (%) Mean (A101D; 1.00E−01 microM): 57.8% | Relative cell count (%) Mean (A101D; 1.00E−02 microM): 54.7% | Relative cell count (%) Mean (A101D; 1.00E−03 microM): 66.8% | Relative cell count (%) Mean (A101D; 1.01E−04 microM): 90.7% | Relative cell count (%) Mean (A101D; 3.16E−01 microM): 52.8% | Relative cell count (%) Mean (A101D; 3.17E−02 microM): 58.0% | Relative cell count (%) Mean (A101D; 3.17E−03 microM): 61.9% | Relative cell count (%) Mean (A101D; 3.18E−04 microM): 78.1% | Relative cell count (%) Mean (A101D; 3.18E−05 microM): 95.8% | EC50 (A101D; [1]): 0.322 nM | GI50 (A101D; [2]): 0.999 nM | IC50 (A101D; [3]): > 1000 nM | Cell Count Activity Area (A101D; scale 0-10): 3.52

Source: patent US20210024542A1 (Torcept Therapeutics, Inc., priority 2018, published 2021)
